According to US20090227781A1, “Glycolipid Derivative and Drug Containing the Same as Active Component” (priority 2005, published 2009):

Columns and labels:
[1] = tested on: collagen induced arthritis (CIA); conditions: Nonpatent Documents 2 to 4, Patent Document 2; cited from earlier work
[2] = tested on: experimental autoimmune encephalomyelitis (EAE); conditions: Nonpatent Documents 2 to 4, Patent Document 2; cited from earlier work
[3] = tested on: mononuclear cells; experiment: Effect on liver mononuclear cells of Jα18 gene-deficient mice with no NKT cells; assay type: cell-based
Method: (§1) Mononuclear cells were separated from the livers of C57BL/6J mice (8 weeks old, female) and incubated with the compound for 48 hours. […] The reaction by α-GC and slight intake of tritium and the slight amount of cytokine production observed for the compound at 30 ng/ml were not seen in Jα18 gene-deficient mice with no NKT cells, and, therefore, these reactions were confirmed to be NKT cell-dependent reactions (see FIG. 4).

[4] = tested on: NKT cells; experiment: Effect of compound on NKT cells: liver mononuclear cells incubated with compound for 48 hours; assay type: cell-based, C57BL/6J mice; conditions: 48 hours incubation; FIG. 4
Method: as §1

**Q.** For CCCCCCCCCCCCCCCCCCCCCCCC(=O)N[C@@H](COC1OC(CO)C(O)C(O)C1O)[C@H](O)[C@H](O)CCCCC (stereo partly drawn) [OCH], which “effectiveness in CIA, animal model of rheumatoid arthritis” value [1] is on record?
**A.** high effectiveness

**Q.** And the “effectiveness in EAE, animal model of multiple sclerosis” value [2]?
**A.** high effectiveness

**Q.** Which results are given for CCCCCCCCCCCCCCCCCCCCCCCCCC(=O)N[C@@H](COC1OC(CO)C(O)C(O)C1O)[C@H](O)[C@H](O)CCCCCCCCCCCCCC (stereo partly drawn) [α-GC, α-galactosyl ceramide]?
**A.** reaction (tritium intake, cytokine production) in mice with no NKT cells [3]: not seen; IFN-γ production (ELISA, supernatant) [4]: caused; IL-4 production (ELISA, supernatant) [4]: caused; cell proliferation (intake of tritium thymidine) [4]: caused
